In ChEMBL document CHEMBL1157225, “Highly N-methylated linear peptides produced by an atypical sponge-derived Acremonium sp” (2006):
In brackets after ≈: the same amount, converted by molar mass. Where a SMILES comes first, the peptide text is derived from it. [ ]: non-standard residue; d: D form. The star is where a group is joined. X1 = CC(C)C[C@@H](C[N+]1=C2CCCN2CCC1)N*; Pip = O=C(O)[C@@H]1CCCCN1; Iva = CC[C@](C)(N)C(=O)O; Aib = CC(C)(N)C(=O)O; βAla = NCCC(=O)O

How the values were obtained:
[1] = tested on: Staphylococcus epidermidis; assay: Antimicrobial activity against Staphylococcus epidermidis; type: functional
L1210 = assay: Cytotoxicity against mouse L1210 cells relative to efrapeptin G; type: functional
[2] = Staphylococcus epidermidis, read-out: MIC

Structure (SMILES) | MIC [1, 2] [µg/mL] | MIC [1] [µg/mL] | Activity (L1210)
CN[C@H](CC(C)C)C(=O)N[C@H]1C(=O)N[C@@H](CC(N)=O)C(=O)N[C@H]2C(=O)N[C@H]3C(=O)N[C@H](C(=O)N[C@H](C(=O)O)c4cc(O)cc(O)c4-c4cc3ccc4O)[C@H](O)c3ccc(c(Cl)c3)Oc3cc2cc(c3O[C@@H]2O[C@H](CO)[C@@H](O)[C@H](O)[C@H]2O[C@H]2C[C@](C)(N)[C@H](O)[C@H](C)O2)Oc2ccc(cc2Cl)[C@H]1O [VANCOMYCIN] | 0.63 (≈ 0.435 µM) |  | 
CC[C@H](C)[C@H](NC(=O)[C@H](CC(C)C)N(C)C(=O)[C@@H](NC(=O)[C@@H](CCC(N)=O)NC(C)=O)[C@@H](C)CC)C(=O)N(C)[C@H](C(=O)N(C)[C@H](C(=O)N(C)[C@H](C(=O)N(C)[C@H](C(=O)O)[C@@H](C)CC)[C@@H](C)CC)[C@@H](C)CC)C(C)C | 25 (≈ 24.1 µM) | 50 (≈ 48.2 µM) | 
CC[C@H](C)[C@H](NC(=O)[C@H](C(C)C)N(C)C(=O)[C@H](CC(C)C)N(C)C(=O)[C@@H](NC(=O)[C@@H](CCC(N)=O)NC(C)=O)C(C)C)C(=O)N(C)[C@H](C(=O)N(C)[C@H](C(=O)N(C)[C@H](C(=O)O)[C@@H](C)CC)[C@@H](C)CC)[C@@H](C)CC | > 400 |  | 1
CC[C@](C)(NC(=O)[C@H](CC(C)C)NC(=O)[C@H](C)NC(=O)C(C)(C)NC(=O)[C@@H]1CCCCN1C(=O)C(C)(C)NC(=O)C(C)(C)NC(=O)CNC(=O)CCNC(=O)[C@H](CC(C)C)NC(=O)C(C)(C)NC(=O)[C@](C)(CC)NC(=O)[C@@H]1CCCCN1C(=O)C(C)(C)NC(=O)[C@@H]1CCCCN1C(C)=O)C(=O)N[C@@H](CC(C)C)C[N+]1=C2CCCN2CCC1 [EFRAPEPTIN G] (Ac-[Pip][Aib][Pip][Iva][Aib]L[βAla]G[Aib][Aib][Pip][Aib]AL[Iva]-X1) | 80 |  | 3300
